Patent publication US12215093B2, “Bicyclic carboxamides and methods of use thereof” (Tempest Therapeutics, Inc., priority 2018, dated 2025)
Like-named read-outs stand apart in the source and are kept apart here.

What was measured:
EP4 = biological target: T1, EP4 (Homo sapiens, UniProt P35408); test: Functional calcium flux assay, EP4; format: cell-based; conditions: stably transfected HEK293 cells; PGE2 10 nM; read-out: EP4 Ca2+-flux assay IC50
T1 construct: host or cells: stably transfected HEK293 cells co-expressing a promiscuous G protein and a clytin variant
Description: Each receptor subtype has an additional promiscuous G protein added in order to couple the aforementioned receptor to the calcium signaling pathway. The parental cell line used also expresses a novel variant of clytin, a calcium-activated photo-protein, to enable sensitive luminescent detection. Briefly, cells were plated at 50,000 cells-per-well in black, clear bottom 96-well plates. The plated cells were allowed to sit at room temperature for 30 min prior to transferring to a humidified, 37° C., 5% CO2 incubator for 18 to 24 h. Assay buffer (HBSS with 20 mM HEPES) and loading buffer (assay buffer plus 10 μM coelenterazine) were prepared on the day of the assay. Assays were performed by aspirating media from the assay plate and washing once with assay buffer, then replacing with loading buffer and allowing the cells to incubate for 1.5 h at room temperature. Compounds were prepared in assay buffer at a 3× final concentration in non-binding plates. Compounds were added to the cell plates and incubated for 30 min at room temperature. The prostanoid receptor ligand PGE2 was prepared at a 4× dilution ratio for a final concentration of 10 nM. Plates were run on a Flexstation™ using a 100 ms integration luminescence protocol for a total of 60 sec with ligand addition at 15 sec. Data were obtained from relative light units as measured by area under the curve.

[1] = Relative activity of resolved enantiomers/diastereomers (assay not stated); conditions: compared with the other eluting peak
EP2 [2] = biological target: T2, EP2 (Homo sapiens, UniProt P43116); test: cell-based;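 further: functional calcium flux assay in stably transfected HEK293 cells expressing EP2 coupled via a promiscuous G protein, clytin luminescence read as area under the curve, 30 min compound preincubation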
EP2 [3] = biological target: T2, EP2

T1 sequence (P35408 whole entry): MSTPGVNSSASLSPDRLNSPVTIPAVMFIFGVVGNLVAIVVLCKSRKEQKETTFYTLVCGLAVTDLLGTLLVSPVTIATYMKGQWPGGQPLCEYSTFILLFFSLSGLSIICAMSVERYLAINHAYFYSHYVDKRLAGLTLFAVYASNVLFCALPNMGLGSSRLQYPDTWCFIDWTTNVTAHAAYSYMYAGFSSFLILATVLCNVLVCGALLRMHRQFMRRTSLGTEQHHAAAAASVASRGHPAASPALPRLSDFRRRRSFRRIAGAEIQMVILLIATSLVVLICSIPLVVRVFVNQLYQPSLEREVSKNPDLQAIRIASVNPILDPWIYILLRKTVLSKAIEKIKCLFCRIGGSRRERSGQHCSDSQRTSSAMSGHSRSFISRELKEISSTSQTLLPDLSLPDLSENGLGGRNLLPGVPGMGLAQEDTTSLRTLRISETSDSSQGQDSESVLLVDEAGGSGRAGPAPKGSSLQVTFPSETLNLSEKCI
T2 sequence (P43116 whole entry): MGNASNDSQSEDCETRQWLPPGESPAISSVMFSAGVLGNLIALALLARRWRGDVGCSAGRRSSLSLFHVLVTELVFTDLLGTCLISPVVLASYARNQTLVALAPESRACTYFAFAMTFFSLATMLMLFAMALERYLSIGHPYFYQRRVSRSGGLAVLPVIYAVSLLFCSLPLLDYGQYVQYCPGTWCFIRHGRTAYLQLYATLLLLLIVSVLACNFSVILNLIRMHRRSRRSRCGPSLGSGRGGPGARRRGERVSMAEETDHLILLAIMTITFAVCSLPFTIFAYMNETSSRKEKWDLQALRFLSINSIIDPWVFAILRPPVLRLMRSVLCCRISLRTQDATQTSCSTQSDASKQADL

IC50 (EP4) [µM]	IC50 (EP2 [2]) [µM]	IC50 (EP2 [3]) [µM]	SMILES	more active enantiomer / diastereomer after chiral SFC resolution [1]
< 0.001	< 0.025	–	CC(c1ccc(-c2ccccc2)cc1)n1ncc2cccc(C(=O)NC3CC4(C3)CC(C(=O)O)C4)c21 (single isomer, unassigned) [Example 125, (Sa)-6-(1-((R) or (S)-1-([1,1′-Biphenyl]-4-yl)-ethyl)-1H-indazole-7-carboxamido)spiro[3.3]heptane-2-carboxylic acid]	more active diastereomer
0.0064	–	< 0.025	CC(c1ccc(-c2ccccc2)cc1)n1ncc2cc(Cl)cc(C(=O)NC3CC4(C3)CC(C(=O)O)C4)c21 (single isomer, unassigned) [Example 174, (Sa)-6-(1-((R) or (S))-1-([1,1′-Biphenyl]-4-yl)ethyl)-5-chloro-1H-indazole-7-carboxamido)spiro[3.3]heptane-2-carboxylic acid]	more active diastereomer
< 0.001	0.043	–	O=C(NC1CC2(C1)CC(C(=O)O)C2)c1ccc(F)c2ccn(Cc3ccc(OC(F)(F)F)cc3)c12 (stereo not drawn) [Example 8, (Sa)-6-(4-Fluoro-1-(4-(trifluoromethoxy)benzyl)-1H-indole-7-carboxamido)spiro[3.3]heptane-2-carboxylic acid]	more active enantiomer
–	–	–	O=C(NC1CC2(C1)CC(C(=O)O)C2)c1ccc(F)c2ccn(Cc3ccc(-c4ccccc4)cc3)c12 (stereo not drawn) [Example 9, (Sa)-6-(1-([1,1′-Biphenyl]-4-ylmethyl)-4-fluoro-1H-indole-7-carboxamido)spiro[3.3]heptane-2-carboxylic acid]	more active enantiomer
–	–	–	O=C(NC1CC2(C1)CC(C(=O)O)C2)c1ccc(F)c2ccn(Cc3ccc(-c4ccncc4)cc3)c12 (stereo not drawn) [Example 24, (Sa)-6-(4-Fluoro-1-(4-(pyridin-4-yl)benzyl)-1H-indole-7-carboxamido)spiro[3.3]heptane-2-carboxylic acid]	more active enantiomer
< 0.001	0.094	–	O=C(NC1CC2(C1)CC(C(=O)O)C2)c1ccc(Cl)c2ccn(Cc3ccc(N4CCOCC4)cc3)c12 (stereo not drawn) [Example 71, (Sa)-6-(4-Chloro-1-(4-morpholinobenzyl)-1H-indole-7-carboxamido)spiro[3.3]heptane-2-carboxylic acid]	–
0.0044	0.099	–	COc1cc(-c2ccc(Cn3ncc4c(Cl)ccc(C(=O)NC5CC6(C5)CC(C(=O)O)C6)c43)cc2)ccn1 (stereo not drawn) [Example 78, (Sa)-6-(4-Chloro-1-(4-(2-methoxypyridin-4-yl)benzyl)-1H-indazole-7-carboxamido)spiro[3.3]heptane-2-carboxylic acid]	–
< 0.001	< 0.025	–	CCOc1cccc(-c2ccc(Cn3ncc4c(Cl)ccc(C(=O)NC5CC6(C5)CC(C(=O)O)C6)c43)cc2)n1 (stereo not drawn) [Example 83, (Sa)-6-(4-Chloro-1-(4-(6-ethoxypyridin-2-yl)benzyl)-1H-indazole-7-carboxamido)spiro[3.3]heptane-2-carboxylic acid]	–
< 0.001	< 0.025	–	COc1cccc(-c2ccc(Cn3ccc4c(OC)ncc(C(=O)NC5CC6(C5)CC(C(=O)O)C6)c43)cc2)n1 (stereo not drawn) [Example 92, (Sa)-6-(4-Methoxy-1-(4-(6-methoxypyridin-2-yl)benzyl)-1H-pyrrolo[3,2-c]pyridine-7-carboxamido)spiro[3.3]heptane-2-carboxylic acid]	–
–	–	–	[2H]C1(C(=O)O)CC2(CC(NC(=O)c3ccc(F)c4ccn(Cc5ccc(-c6ccccc6)cc5)c34)C2)C1 (stereo not drawn) [Example 105, (Sa)-6-(1-([1,1′-Biphenyl]-4-ylmethyl)-4-fluoro-1H-indole-7-carboxamido)-2-deuterospiro[3.3]heptane-2-carboxylic acid]	more active enantiomer
0.0012	0.038	–	CS(=O)(=O)NC(=O)C1CC2(CC(NC(=O)c3ccc(F)c4ccn(Cc5ccc(OC(F)(F)F)cc5)c34)C2)C1 (stereo not drawn) [Example 111, (Sa)-4-Fluoro-N-(6-((methylsulfonyl)carbamoyl)spiro[3.3]heptan-2-yl)-1-(4-(trifluoromethoxy)benzyl)-1H-indole-7-carboxamide]	–
< 0.001	< 0.025	–	COc1cc(-c2ccc(Cn3ncc4cc(Cl)cc(C(=O)NC5CC6(C5)CC(C(=O)O)C6)c43)cc2)ccn1 (stereo not drawn) [Example 135, (Sa)-6-(5-Chloro-1-(4-(2-methoxypyridin-4-yl)benzyl)-1H-indazole-7-carboxamido)spiro[3.3]heptane-2-carboxylic acid]	–
< 0.001	< 0.025	–	CCOc1cc(-c2ccc(Cn3ncc4cc(Cl)cc(C(=O)NC5CC6(C5)CC(C(=O)O)C6)c43)cc2)ccn1 (stereo not drawn) [Example 136, (Sa)-6-(5-chloro-1-(4-(2-ethoxypyridin-4-yl)benzyl)-1H-indazole-7-carboxamido)spiro[3.3]heptane-2-carboxylic acid]	–
< 0.001	0.061	–	COc1cccc(-c2ccc(Cn3ccc4c(F)ccc(C(=O)NC5CC6(CC(CC(=O)O)C6)C5)c43)cc2)n1 (stereo not drawn) [Example 150, (Ra)-2-(6-(4-fluoro-1-(4-(6-methoxypyridin-2-yl)benzyl)-1H-indole-7-carboxamido)spiro[3.3]heptan-2-yl)acetic acid]	–
0.0029	< 0.025	–	O=C(NC1CC2(C1)CC(C(=O)O)C2)c1ccc(Cl)c2cnn(C3(c4ccc(-c5ccccc5)cc4)COC3)c12 (stereo not drawn) [Example 176, (Sa)-6-(1-(3-([1,1′-Biphenyl]-4-yl)oxetan-3-yl)-4-chloro-1H-indazole-7-carboxamido)spiro[3.3]heptane-2-carboxylic acid]	–
